Experimental data: ChEMBL document CHEMBL3886228, “Substituted benzopiperazines as CETP inhibitors” (2015)

Biological target: T1, Cholesteryl ester transfer protein (Homo sapiens, UniProt P11597)
T1 sequence (P11597 whole entry): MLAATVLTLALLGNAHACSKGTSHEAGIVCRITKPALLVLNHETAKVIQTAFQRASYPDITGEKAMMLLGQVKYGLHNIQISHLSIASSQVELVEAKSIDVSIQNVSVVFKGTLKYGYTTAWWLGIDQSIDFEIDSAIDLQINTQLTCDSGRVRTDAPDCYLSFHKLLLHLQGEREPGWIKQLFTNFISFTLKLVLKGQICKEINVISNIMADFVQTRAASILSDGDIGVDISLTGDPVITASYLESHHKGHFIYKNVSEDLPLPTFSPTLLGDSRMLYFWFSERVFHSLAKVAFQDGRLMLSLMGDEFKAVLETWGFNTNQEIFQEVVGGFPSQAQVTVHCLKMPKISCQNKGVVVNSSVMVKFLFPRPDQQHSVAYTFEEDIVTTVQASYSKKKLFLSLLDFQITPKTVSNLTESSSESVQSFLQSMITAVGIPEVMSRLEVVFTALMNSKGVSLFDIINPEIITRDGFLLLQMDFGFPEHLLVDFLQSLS
Test: Scintillation Proximity Assay (SPA): First, low density lipoprotein (LDL) (Meridian) was biotinylated by incubating LDL with biotin for 1 hour on ice, after which it was dialyzed to remove free biotin. Then compounds at varying concentrations were incubated with 15 nM CETP (reagent production group, In Vitro Pharmacology, MRL Rahway) and 50 ug/ml of the biotinylated LDL in 50 mM HEPES, 150 mM NaCl, pH 7.4, for 1 hour at 37° C. The reaction was started by adding 3H-cholesterol ester high density lipoprotein (HDL) (American Radiochemicals Corp) at a concentration of ~0.6 nM. The reaction proceeded for 2 hours at 37° C., after which time it was quenched by the addition of 12% acetic acid. PVT streptavadin-coated scintillation proximity beads, which had been brought to room temperature, were then added at a concentration of 4 mg/ml. The assay was then mixed and counted after one half hour in a Microbeta plate reader.

| IC50 [nM] | Structure (SMILES) |
| --- | --- |
| 630 | COc1cccc(CN2C[C@@H](c3cccc(C(F)(F)F)c3)N(C[C@@H](O)C(F)(F)F)c3ccccc32)n1 |
| 210 | COc1cccnc1CN1C[C@@H](c2cccc(C(F)(F)F)c2)N(C[C@@H](O)C(F)(F)F)c2ccccc21 |
| 310 | CCOc1cccc(CN2C[C@@H](c3cccc(C(F)(F)F)c3)N(C[C@@H](O)C(F)(F)F)c3ccccc32)n1 |
| 67 | Cc1cc(CN2C[C@@H](c3cccc(C(F)(F)F)c3)N(C[C@@H](O)C(F)(F)F)c3ccccc32)cc(Cl)n1 |
| 1430 | O[C@H](CN1c2ccccc2N(Cc2cccc(OC(F)(F)F)c2)C[C@H]1c1cccc2ccccc12)C(F)(F)F |
| 750 | CC(C)Oc1cccc(CN2C[C@@H](c3cccc(C(F)(F)F)c3)N(C[C@@H](O)C(F)(F)F)c3ccccc32)n1 |
